Biological target: SdiA (Salmonella enterica subsp. enterica serovar Typhimurium, UniProt O66040)
Assay: S. Typhimurium-pJNS25 SdiA reporter, competitive antagonism against 10 nM L-OOHL
Type: cell-based
Conditions: average ± STD, change in activity from 10 nM 2 (OOHL); for Antagonism 1 μM Inhibition (%): 1 μM compound; for Antagonism 100 μM Inhibition (%): 100 μM compound
Excerpt: Biological assays for SdiA activity. Cell-based reporter strains that rely on detecting the transcriptional activity of LuxR-type receptors are commonly used to assess the activity of exogenous ligands. We used the S. Typhimurium-pJNS25 reporter strain constructed by Smith and Ahmer and also used by Janssens et al. to examine SdiA activity. This strain naturally produces SdiA and contains a reporter plasmid with the promoter region for srgE fused to the luxABCDE operon of V. fischeri (see Experimental section for details of all strains and plasmids). SdiA activity is thus reported by the production of luciferase and resulting bioluminescence. We also prepared an SdiA reporter in E. coli (JLD271-pJN105SE-pSC11SE) to examine S. Typhimurium SdiA activity in an alternate background and with a different reporter gene output. […] This reporter construct uses an arabinose inducible promoter to produce S. Typhimurium SdiA and the promoter region for srgE fused to lacZ to report SdiA activity. SdiA activity is then measured using standard β-galactosidase assays. In both reporter strains, signal was normalized to the difference between the positive control (10 μM OOHL) and the negative control (1% DMSO; no compound).
Salmonella SdiA reporter assay. S. Typhimurium-pJNS25 was grown 16–18 h overnight in LB, diluted 1:100 in fresh LB medium, and then incubated for 6 h at 37 °C with shaking at 200 rpm in the presence of compounds (1% DMSO). […] All compounds were screened at 100 μM and 1 μM in triplicate in agonism and antagonism assays. […] Dose–response analyses were performed by preparing dilutions of compounds in DMSO and testing each concentration in the agonism or antagonism assays. Competition dose–response assays (data in Figure 5) were performed in the same manner as the antagonism assays, except instead of OOHL being added to the subculture, the antagonist being tested was added. Non-linear regression curve fits were generated using GraphPad Prism software (version 6) using variable slope (four parameter) dose–response analysis.

Chain of SdiA (O66040 entry or part of it): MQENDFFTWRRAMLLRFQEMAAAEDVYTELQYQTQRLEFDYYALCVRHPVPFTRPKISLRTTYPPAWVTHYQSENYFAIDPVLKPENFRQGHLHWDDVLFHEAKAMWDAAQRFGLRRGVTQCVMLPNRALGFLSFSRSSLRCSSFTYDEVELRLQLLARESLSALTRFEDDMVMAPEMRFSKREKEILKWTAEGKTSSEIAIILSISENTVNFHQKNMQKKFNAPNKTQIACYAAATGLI

Compound	Antagonism 1 μM Inhibition (%)	Antagonism 100 μM Inhibition (%)
O=C(NCc1cc(Br)cc(Br)c1OC(=O)c1ccccc1[N+](=O)[O-])c1ccccc1Cl [19P, reference compound]	39 ± 16%	25 ± 16%
CCCCCCCCCC(=O)N[C@H]1CCOC1=O [A4]	12 ± 19%	18 ± 7%
CCCCCS(=O)(=O)N[C@H]1CCOC1=O [A9]	10 ± 9%	13 ± 2%
O=C(CCCc1ccccc1)NC1CCOC1=O (stereo not drawn) [B3]	34 ± 5%	16 ± 3%
O=C(CCCc1c[nH]c2ccccc12)N[C@@H]1CCOC1=O [B5]	30 ± 15%	-8 ± 5%
O=C(N[C@H]1CCOC1=O)c1ccc(Br)cc1 [B6]	25 ± 11%	-14 ± 17%
O=C(N[C@H]1CCOC1=O)c1ccccc1 [B8]	26 ± 3%	-13 ± 11%
O=C(CCc1ccccc1)N[C@H]1CCOC1=O [B9]	13 ± 10%	18 ± 14%
O=C(C=Cc1ccccc1)NC1CCOC1=O (stereo not drawn) [B10]	16 ± 5%	-56 ± 11%
O=C(Cc1c[nH]c2ccccc12)N[C@H]1CCOC1=O [B13]	8 ± 10%	13 ± 13%
O=C(CCc1c[nH]c2ccccc12)N[C@H]1CCOC1=O [B14]	10 ± 2%	18 ± 5%
O=C(Cc1ccccc1)N[C@H]1CCOC1=O [C1]	9 ± 12%	-6 ± 5%
O=C(Cc1ccc(F)cc1)N[C@H]1CCOC1=O [C2]	2 ± 8%	-8 ± 18%
O=C(Cc1cccc(F)c1)N[C@H]1CCOC1=O [C3]	-1 ± 15%	-18 ± 12%
O=C(Cc1ccccc1F)N[C@H]1CCOC1=O [C4]	3 ± 6%	-31 ± 10%
O=C(Cc1ccc(Cl)cc1)N[C@H]1CCOC1=O [C5]	13 ± 6%	18 ± 7%
O=C(Cc1ccccc1Cl)N[C@H]1CCOC1=O [C7]	22 ± 6%	-32 ± 5%
O=C(Cc1ccccc1I)N[C@H]1CCOC1=O [C12]	9 ± 13%	-24 ± 12%
O=C(Cc1ccc([N+](=O)[O-])cc1)N[C@H]1CCOC1=O [C13]	24 ± 4%	14 ± 9%
O=C(Cc1ccccc1[N+](=O)[O-])N[C@H]1CCOC1=O [C15]	5 ± 2%	-17 ± 18%

Compound	Antagonism 1 μM Inhibition (%)	Antagonism 100 μM Inhibition (%)
O=C(Cc1c(F)c(F)c(F)c(F)c1F)N[C@H]1CCOC1=O [C16]	5 ± 3%	-32 ± 18%
[N-]=[N+]=Nc1ccc(CC(=O)N[C@H]2CCOC2=O)cc1 [C17]	13 ± 11%	9 ± 6%
O=C(Cc1ccc(C(F)(F)F)cc1)N[C@H]1CCOC1=O [C20]	15 ± 10%	8 ± 6%
Nc1ccc(CC(=O)N[C@H]2CCOC2=O)cc1 [C21]	4 ± 12%	13 ± 4%
CC(C)(C)OC(=O)Nc1ccc(CC(=O)N[C@H]2CCOC2=O)cc1 [C22]	-9 ± 2%	6 ± 6%
O=C(Cc1ccc(O)cc1)N[C@H]1CCOC1=O [C23]	6 ± 2%	16 ± 3%
CCOc1ccc(CC(=O)N[C@H]2CCOC2=O)cc1 [C25]	12 ± 8%	7 ± 5%
O=C(CCc1cccs1)N[C@H]1CCOC1=O [D3]	10 ± 2%	6 ± 9%
Cc1nc(-c2ccccc2)oc1CC(=O)N[C@H]1CCOC1=O [D4]	28 ± 13%	-6 ± 4%
Cc1ccc(C(=O)CCC(=O)N[C@H]2CCOC2=O)cc1 [D6]	21 ± 19%	3 ± 12%
O=C(N[C@H]1CCOC1=O)c1cnn(-c2ccccc2)c1C(F)(F)F [D9]	26 ± 6%	9 ± 1%
O=C(N[C@H]1CCOC1=O)c1ccc(-c2csnn2)cc1 [D10]	23 ± 6%	14 ± 12%
CCCCCCCCc1ccc(C(=O)N[C@H]2CCOC2=O)cc1 [D13]	17 ± 7%	23 ± 7%
COc1cc(C(C)=O)ccc1OCC(=O)N[C@H]1CCOC1=O [D16]	19 ± 6%	3 ± 6%
COc1ccccc1C1CCN(c2ccc(/C=C/C(=O)N[C@H]3CCOC3=O)cc2[N+](=O)[O-])CC1 [D18]	18 ± 8%	32 ± 5%
COc1cccc(CC(=O)N[C@H]2CCOC2=O)c1 [E2]	-5 ± 1%	-8 ± 14%
O=C(Cc1cccc(C(F)(F)F)c1)N[C@H]1CCOC1=O [E3]	-14 ± 16%	5 ± 8%
N#Cc1ccc(CC(=O)N[C@H]2CCOC2=O)cc1 [E4]	12 ± 6%	-17 ± 18%
O=C(Cc1ccc(SC(F)(F)F)cc1)N[C@H]1CCOC1=O [E8]	34 ± 11%	31 ± 7%
O=C(Cc1cc(C(F)(F)F)cc(C(F)(F)F)c1)N[C@H]1CCOC1=O [E9]	18 ± 8%	21 ± 8%

Compound	Antagonism 1 μM Inhibition (%)	Antagonism 100 μM Inhibition (%)
O=C(Cc1ccc2ccccc2c1)N[C@H]1CCOC1=O [E12]	-13 ± 9%	0 ± 15%
O=C(COc1cccc([N+](=O)[O-])c1)N[C@H]1CCOC1=O [E25]	5 ± 18%	9 ± 12%
COc1ccc(CCC(=O)N[C@H]2CCOC2=O)cc1 [E28]	11 ± 18%	6 ± 15%
O=C(CCc1cccc(Br)c1)N[C@H]1CCOC1=O [E31]	13 ± 10%	6 ± 6%
O=C(CCc1ccc(I)cc1)N[C@H]1CCOC1=O [E32]	19 ± 14%	24 ± 13%
O=C(CCc1ccc([N+](=O)[O-])cc1)N[C@H]1CCOC1=O [E37]	34 ± 5%	23 ± 5%
O=C(CCc1cccc([N+](=O)[O-])c1)N[C@H]1CCOC1=O [E38]	15 ± 11%	32 ± 6%
O=C(CCc1ccc2c(c1)OCO2)N[C@H]1CCOC1=O [E39]	10 ± 15%	12 ± 3%
CCCCCCCCCCCC(=O)N[C@H]1CCSC1=O [F4]	-2 ± 11%	2 ± 5%
CCCCCCC(=O)N[C@H]1CCSC1=O [F6]	5 ± 5%	-2 ± 7%
CCCCCC(=O)N[C@H]1CCSC1=O [F7]	7 ± 9%	-12 ± 4%
O=C(Cc1ccccc1)N[C@H]1CCSC1=O [F9]	-1 ± 4%	-13 ± 1%
O=C(Cc1ccc(Br)cc1)N[C@H]1CCSC1=O [F10]	8 ± 12%	-3 ± 7%
O=C(Cc1cccc([N+](=O)[O-])c1)NC1CCCC1 [F18]	4 ± 6%	15 ± 3%
O=C(Cc1cccc([N+](=O)[O-])c1)Nc1ccccc1 [F25]	20 ± 4%	-2 ± 14%
O=C(Cc1cccc([N+](=O)[O-])c1)NCc1cccc([N+](=O)[O-])c1 [F55]	11 ± 4%	26 ± 7%
CCCCCC(O)CC(=O)N[C@H]1CCOC1=O (stereo partly drawn) [H2]	8 ± 5%	12 ± 16%
CCCCCCCCCCCCCC(O)CC(=O)N[C@H]1CCOC1=O (stereo partly drawn) [H6]	15 ± 1%	15 ± 13%
O=C(CC(O)Cc1cccc(I)c1)N[C@H]1CCOC1=O (stereo partly drawn) [H15]	6 ± 14%	19 ± 11%
O=C(CC(=O)N[C@H]1CCOC1=O)Cc1cccc(Cl)c1 [H23]	12 ± 8%	1 ± 9%

— publication PMC6204753, “Non-native autoinducer analogs capable of modulating the SdiA quorum sensing receptor in Salmonella enterica serovar Typhimurium” (Beilstein Journal of Organic Chemistry, 2018)
